Measurements taken from ChEMBL document CHEMBL1201862, “PubChem BioAssay data set” (2004).
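Values below derive from 48-hour exposures of cells grown in 96-well plates, with endpoints linearly interpolated between the two concentrations bracketing the appropriate inhibition level. GI50 marks 50% less growth.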 The source made the active and inactive calls. No stated cut-off is given here; in the data, active = GI50 up to about 1.1 µM and inactive = higher.

Columns and labels:
Assay in all cases: NCI anticancer screen, dose series, 48 h
MDA-N = test system: MDA-N
OVCAR-4 = test system: OVCAR-4
MDA-MB-231 = test system: MDA-MB-231
NCI-H460 = test system: NCI-H460
T47D = test system: T47D
A549 = test system: A549
PC-3 = test system: PC-3
ACHN = test system: ACHN
COLO 205 = test system: COLO 205
Hs-578T = test system: Hs-578T
NCI/ADR-RES = test system: NCI/ADR-RES
SK-MEL-28 = test system: SK-MEL-28
NCI-H23 = test system: NCI-H23
HCC 2998 = test system: HCC 2998

Measured: GI50

COc1cccc(C2c3cc4c(cc3OC(N3CCOCC3)C2C)OCO4)c1 (stereo not drawn)
inactive: MDA-N 3.07 µM | OVCAR-4 14.7 µM | MDA-MB-231 35.1 µM | NCI-H460 14.2 µM | T47D 27.5 µM | A549 12.9 µM | PC-3 5.53 µM | ACHN 14.7 µM | COLO 205 11.3 µM | Hs-578T 13.9 µM | NCI/ADR-RES 13.7 µM

COc1ccc(-c2cs/c(=N\c3ccccc3)n2CCCN(C)C)cc1
inactive: MDA-N 30.6 µM | SK-MEL-28 18.2 µM | OVCAR-4 23.3 µM | MDA-MB-231 44.2 µM | NCI-H460 23.8 µM | A549 17.1 µM | NCI-H23 23.1 µM | PC-3 12.6 µM | HCC 2998 16.3 µM | ACHN 21.8 µM | NCI/ADR-RES 15.2 µM

O=c1cc(O)c1=O
inactive: MDA-N > 100 µM | SK-MEL-28 > 100 µM | OVCAR-4 > 100 µM | MDA-MB-231 > 10 µM | NCI-H460 > 100 µM | T47D > 100 µM | A549 > 100 µM | NCI-H23 > 100 µM | PC-3 > 100 µM | HCC 2998 > 100 µM | ACHN > 100 µM | COLO 205 > 100 µM | Hs-578T > 100 µM

N=c1n(C(=O)N2CCCC2)c2cc(Cl)ccc2n1C1=NCCN1
inactive: MDA-N 61.8 µM | SK-MEL-28 95.3 µM | OVCAR-4 > 100 µM | MDA-MB-231 67.9 µM | NCI-H460 > 100 µM | T47D 24.2 µM | A549 > 100 µM | PC-3 86.9 µM | HCC 2998 > 100 µM | ACHN 43.7 µM | COLO 205 > 100 µM | Hs-578T > 100 µM | NCI/ADR-RES 93.5 µM

COc1nc(N=P(c2ccccc2)(c2ccccc2)c2ccccc2)cc(=O)n1C
inactive: MDA-N > 100 µM | SK-MEL-28 > 100 µM | OVCAR-4 > 100 µM | MDA-MB-231 > 100 µM | NCI-H460 > 100 µM | T47D > 100 µM | A549 > 100 µM | NCI-H23 > 100 µM | PC-3 > 100 µM | HCC 2998 > 100 µM | ACHN > 100 µM | COLO 205 > 100 µM | Hs-578T > 100 µM | NCI/ADR-RES > 100 µM

CCOC(=O)c1sc2nc(SC)nc(N3CCCCC3)c2c1N
inactive: MDA-N > 100 µM | SK-MEL-28 > 100 µM | OVCAR-4 > 100 µM | MDA-MB-231 > 100 µM | NCI-H460 > 100 µM | T47D > 100 µM | A549 > 100 µM | NCI-H23 > 100 µM | PC-3 > 100 µM | HCC 2998 > 100 µM | ACHN > 100 µM | COLO 205 > 100 µM | Hs-578T > 100 µM | NCI/ADR-RES > 100 µM

CCc1ncc(C(C)(O)c2ccccc2)n1Cc1ccccc1 (stereo not drawn)
inactive: SK-MEL-28 33.4 µM | OVCAR-4 35.8 µM | MDA-MB-231 29.3 µM | NCI-H460 54.7 µM | T47D 73.6 µM | A549 35.5 µM | NCI-H23 5.56 µM | PC-3 43.4 µM | ACHN 82.2 µM | COLO 205 27.8 µM | Hs-578T 33.4 µM | NCI/ADR-RES 37.7 µM

CC(C)CCNc1ncnc2[nH]ncc12
inactive: MDA-N 64.7 µM | SK-MEL-28 > 100 µM | OVCAR-4 > 100 µM | MDA-MB-231 > 100 µM | NCI-H460 > 100 µM | T47D 45.7 µM | A549 > 100 µM | NCI-H23 > 100 µM | PC-3 > 100 µM | HCC 2998 > 100 µM | ACHN 68.9 µM | COLO 205 63.4 µM | Hs-578T 46.7 µM | NCI/ADR-RES 77.4 µM

CC1=CC(=O)CC2(C)CCC(C(C)CC(=O)CC(C)C)CC12 (stereo not drawn)
inactive: SK-MEL-28 26 µM | OVCAR-4 > 100 µM | MDA-MB-231 42.8 µM | NCI-H460 32.4 µM | A549 17.8 µM | NCI-H23 35.4 µM | PC-3 19.5 µM | ACHN 17.4 µM | COLO 205 17.3 µM | Hs-578T > 100 µM | NCI/ADR-RES 29.6 µM

CC(O)(P(=O)(O)O)P(=O)(O)OCC(O)CN1CCOCC1 (stereo not drawn)
inactive: MDA-N > 100 µM | SK-MEL-28 > 100 µM | MDA-MB-231 > 100 µM | NCI-H460 > 100 µM | A549 > 100 µM | NCI-H23 > 100 µM | PC-3 > 100 µM | HCC 2998 > 100 µM | ACHN > 100 µM | COLO 205 > 100 µM | Hs-578T > 100 µM | NCI/ADR-RES > 100 µM

CCCCCCCc1cscc1-c1cscc1Br
inactive: MDA-N 35.8 µM | SK-MEL-28 88.9 µM | OVCAR-4 33.7 µM | MDA-MB-231 52.2 µM | NCI-H460 39.4 µM | T47D 24.2 µM | A549 27.2 µM | NCI-H23 40.8 µM | PC-3 33 µM | HCC 2998 27.7 µM | ACHN 33.5 µM | COLO 205 18 µM | NCI/ADR-RES 90.8 µM

CC(C)C1=C(O)C(=O)C2=C(C1=O)C(OC=O)C(O)C1C(C)(C)CCCC21C (stereo not drawn)
inactive: MDA-N 7.31 µM | SK-MEL-28 3.13 µM | OVCAR-4 10.2 µM | MDA-MB-231 5.79 µM | NCI-H460 3.22 µM | T47D 8.24 µM | A549 14.7 µM | NCI-H23 7 µM | PC-3 11.2 µM | HCC 2998 6.82 µM | ACHN 3.87 µM | COLO 205 3.54 µM | Hs-578T 8.51 µM

O=c1oc2ccc(-n3c(=O)c4ccccc4c4ccccc4c3=O)cc2c2ccccc12
inactive: MDA-N > 100 µM | SK-MEL-28 > 100 µM | OVCAR-4 > 100 µM | MDA-MB-231 > 100 µM | NCI-H460 > 100 µM | T47D > 100 µM | A549 > 100 µM | NCI-H23 > 100 µM | PC-3 > 100 µM | HCC 2998 > 100 µM | ACHN > 100 µM | COLO 205 > 100 µM | Hs-578T 27 µM | NCI/ADR-RES > 100 µM

COC(=O)N[C@H](C(=O)NC(OCc1ccccc1)C1COC(C)(C)O1)C(C)O[Si](C)(C)C(C)(C)C (stereo partly drawn)
inactive: MDA-N > 100 µM | SK-MEL-28 > 100 µM | OVCAR-4 > 100 µM | NCI-H460 57.3 µM | T47D > 100 µM | A549 > 100 µM | NCI-H23 > 100 µM | PC-3 32.4 µM | HCC 2998 77.8 µM | ACHN > 100 µM | COLO 205 > 100 µM | Hs-578T > 100 µM | NCI/ADR-RES > 100 µM

OC1(c2ccc(Cl)cc2)c2ccc3ccccc3c2C2=N[C@H]3CCCC[C@@H]3N21 (stereo partly drawn)
inactive: MDA-N 10.6 µM | SK-MEL-28 > 100 µM | OVCAR-4 > 100 µM | MDA-MB-231 18 µM | NCI-H460 13.3 µM | T47D 3.13 µM | A549 10 µM | NCI-H23 37 µM | PC-3 6.32 µM | ACHN 18.3 µM | COLO 205 5.81 µM | Hs-578T 1.19 µM | NCI/ADR-RES 1.63 µM

O=c1c2cc(I)ccc2nc(-c2cccs2)n1O
inactive: MDA-N 51.2 µM | SK-MEL-28 65.8 µM | OVCAR-4 31.6 µM | NCI-H460 36.6 µM | T47D 26.2 µM | A549 22.6 µM | NCI-H23 24.2 µM | PC-3 52.1 µM | HCC 2998 30 µM | ACHN 46.3 µM | COLO 205 > 100 µM | NCI/ADR-RES 41.1 µM
